Laboratory results from ChEMBL document CHEMBL4834417, “Diverse Polycyclic Polyprenylated Acylphloroglucinol Congeners with Anti-Nonalcoholic Steatohepatitis Activity from Hypericum forrestii” (J Nat Prod, 2021).
Calls of active or inactive are those of the source.

How the values were obtained:
Type in all cases: functional, cell-based
L02 [1] = assay: Anti-nonalcoholic steatohepatitis activity in FFA-induced human L02 cells assessed as upregulation of PPARalpha mRNA expression at 10 uM by QRT-PCR analysis
L02 [2] = assay: Anti-nonalcoholic steatohepatitis activity in FFA-induced human L02 cells assessed as reduction in lipid droplets at 5 uM after 48 hrs by Oil red O staining based assay
L02 [3] = assay: Anti-nonalcoholic steatohepatitis activity in FFA-induced human L02 cells assessed as upregulation of ACOX1 mRNA expression at 10 uM by QRT-PCR analysis
L02 [4] = assay: Anti-nonalcoholic steatohepatitis activity in FFA-induced human L02 cells assessed as reduction in lipid droplets after 48 hrs by Oil red O staining based assay; settings: dose 5-10 µM
L02 [5] = assay: Anti-nonalcoholic steatohepatitis activity in FFA-induced human L02 cells assessed as downregulation of CD36 mRNA expression at 10 uM by QRT-PCR analysis
L02 [6] = assay: Anti-nonalcoholic steatohepatitis activity in FFA-induced human L02 cells assessed as downregulation of FASN mRNA expression at 10 uM by QRT-PCR analysis

Measured: Activity

CC(C)=CCC/C(C)=C/C[C@]1(CC=C(C)C)C(=O)C(C(=O)c2ccccc2)=C2OC(C)(C)[C@@H]3C[C@]23C1=O
active: L02 [1] | L02 [2] | L02 [3] | L02 [4] Dose-Dependent Effect | L02 [5] | L02 [6]

CC(C)=CCC[C@]1(C)[C@@H](CC=C(C)C)C[C@]23C[C@H](C(C)(C)O)OC2=C(CC=C(C)C)C(=O)[C@@]1(C(=O)c1ccccc1)C3=O
active: L02 [1] | L02 [2] | L02 [3] | L02 [4] Dose-Dependent Effect | L02 [5] | L02 [6]
